From ChEMBL document CHEMBL1153813, “Synthesis of biotinylated OSW-1” (Bioorg Med Chem Lett, 2009) come the findings set out here.

Holding throughout (assay type): functional, cell-based
Assay [1] deals with A-375. Kind of assay: Antiproliferative activity against human A375 cells after 72 hrs by MTT assay. The following applies: A-375, 72 h. For orientation: Formazan colour is commonly taken as a measure of viable cells.
In assay [2] the test system is PANC-1. Put plainly: Antiproliferative activity against human PANC1 cells after 72 hrs by MTT assay. To be noted: PANC-1, 72 h.
The subject of assay [3] is ASPC1. Kind of assay: Antiproliferative activity against human AsPC1 cells after 72 hrs by MTT assay. To be noted: ASPC1, 72 h.
The nature of assay [4]: Antiproliferative activity against human WM35 cells after 72 hrs by MTT assay. The following applies: WM35, 72 h.
Assay [5] has as its system HL-60. Put plainly: Antiproliferative activity against human HL60 cells after 72 hrs by MTT assay. The following applies: HL-60, 72 h.

With `COc1ccc(C(=O)O[C@H]2[C@H](O[C@@H]3[C@@H](O)[C@H](O[C@H]4C[C@H]5[C@@H]6CC=C7C[C@@H](OC(=O)CCCCCCCNC(=O)CCCC[C@@H]8SC[C@@H]9NC(=O)N[C@@H]98)CC[C@]7(C)[C@H]6CC[C@]5(C)[C@@]4(O)[C@H](C)C(=O)CCC(C)C)OC[C@@H]3O)OC[C@@H](O)[C@@H]2O)cc1`, the IC50 – broadly, the midpoint of a concentration-inhibition curve – is 0.2 nM in assay [1]; 1.1 nM in assay [2]; 0.7 nM in assay [3]; 0.2 nM in assay [4]; 0.1 nM in assay [5].
